Measurements reported in US12528792B2, “Sulfonamide compounds and the use thereof in the treatment of cancer” (TROBIO THERAPEUTICS PTY LTD, priority 2019, dated 2026).

Tests used:
Type in all cases: cell-based
[1] = test system: SK-N-SH neuroblastoma cells; assay: Cytotoxicity assay, MTS viability; settings: Homo sapiens, 72 hours
Protocol: The ability of compounds of the disclosure to inhibit the proliferation of SK—N—SH neuroblastoma cells was assessed. The SK—N—SH cell line was maintained as a monolayer in Dulbeccos Modified Eagles medium (DMEM) supplemented with 10% foetal bovine serum (FBS) and grown at 37° C. in a humidified atmosphere with 5% CO2. For the cytotoxicity assay, SK—N—SH cells were seeded at a density of 2×10^3 cells per well in 96-well plates. The cells were treated with serial dilutions of the test compounds (1:2 starting concentration 100 µM) and viability measured after 72 hours using a standard MTS assay. Cell viability was normalised to control (vehicle alone) and dose response curves and EC50 values (Table 3) were determined using Graph Pad Prism 6.

A549 (NSCLC) cells = assay: Anti-proliferative activity, Cell-Titre luminescent viability assay; settings: Homo sapiens, 72 h exposure, Cell-Titre luminescent reagent
Procedure, shortened: (§1)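 Cells attached 24 h at 37° C., 5% CO2, then treated 72 h with compound at 0.3–100 μM or 0.1–30 μM. Viability read by Cell-Titre luminescence after 30 min reagent exposure, normalized to vehicle; EC50 from variable-slope sigmoidal nonlinear regression.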

A2780 (ovarian) cells = assay: as above; settings: Homo sapiens, 72 h exposure, Cell-Titre luminescent reagent
Procedure, shortened: as §1

| SMILES | IC50 [1] | IC50 (A549 (NSCLC) cells) | IC50 (A2780 (ovarian) cells) |
| --- | --- | --- | --- |
| CC(C)c1ccc(NC(=O)c2ccn(S(=O)(=O)c3ccc4[nH]ccc4c3)n2)cc1F [Compound 108, 1-((1H-indol-5-yl)sulfonyl)-N-(3-fluoro-4-isopropylphenyl)-1H-pyrazole-3-carboxamide] | 9.71 µM | 4.09 µM | 8.71 µM |
| CCC(C)c1ccc(NC(=O)c2ccn(S(=O)(=O)c3cc(C(N)=O)n(C)c3)c2)cc1 (stereo not drawn) [Compound 18, 4-((3-((4-(sec-butyl)phenyl)carbamoyl)-1H-pyrrol-1-yl)sulfonyl)-1-methyl-1H-pyrrole-2-carboxamide] | 22.3 µM | 27.6 µM | 6.8 µM |
| CCCc1ccc(NC(=O)c2ccn(S(=O)(=O)c3ccc4[nH]ccc4c3)n2)cc1 [Compound 109, 1-((1H-indol-5-yl)sulfonyl)-N-(4-propylphenyl)-1H-pyrazole-3-carboxamide] | 11 µM | 5.53 µM | 8.65 µM |
| CCC(C)c1ccc(NC(=O)C2CCN(S(=O)(=O)c3ccc4cc[nH]c4n3)CC2)cc1 (stereo not drawn) [Compound 65, 1-((1H-pyrrolo[2,3-b]pyridin-6-yl)sulfonyl)-N-(4-(sec-butyl)phenyl) piperidine-4-carboxamide] | 12.5 µM | 16.2 µM | 22.3 µM |
| CCCc1ccc(NC(=O)c2ccn(S(=O)(=O)c3ccc4[nH]ccc4c3)c2)cc1 [Compound 96, 1-((1H-indol-5-yl)sulfonyl)-N-(4-propylphenyl)-1H-pyrrole-3-carboxamide] | 12.2 µM | 12.8 µM | 8.85 µM |
| CCC(C)c1ccc(NC(=O)C2CCN(S(C)(=O)=O)CC2)cc1 (stereo not drawn) [Compound 29, N-(4-(sec-butyl)phenyl)-1-(methylsulfonyl) piperidine-4-carboxamide] | > 100 µM | > 100 µM | > 100 µM |
| O=C(Nc1ccc(C(F)(F)F)cc1)N1CCN(S(=O)(=O)c2ccc3[nH]ccc3c2)CC1 [Compound 17, 4-((1H-indol-5-yl)sulfonyl)-N-(4-(trifluoromethyl)phenyl)piperazine-1-carboxamide] | 22.9 µM | 6.5 µM | 13.9 µM |
| CCC(C)c1ccc(NC(=O)c2ccn(S(=O)(=O)c3ccc4[nH]c(C)c(C)c4c3)c2)cc1 (stereo not drawn) [Compound 59, N-(4-(sec-butyl)phenyl)-1-((2,3-dimethyl-1H-indol-5-yl)sulfonyl)-1H-pyrrole-3-carboxamide] | 10.3 µM | 6.2 µM | 4.6 µM |
| O=C(Nc1ccccc1C(F)(F)F)c1ccn(S(=O)(=O)c2ccc3[nH]ccc3c2)c1 [Compound 47, 1-((1H-indol-5-yl)sulfonyl)-N-(2-(trifluoromethyl)phenyl)-1H-pyrrole-3-carboxamide] | 27.8 µM | 2.3 µM | 1.6 µM |
| CC(C)(C)c1ccc(NC(=O)c2ccn(S(=O)(=O)c3ccc4[nH]ccc4c3)c2)cc1 [Compound 100, 1-((1H-indol-5-yl)sulfonyl)-N-(4-(tert-butyl)phenyl)-1H-pyrrole-3-carboxamide] | 7.51 µM | 11 µM | 8.87 µM |
| CC(C)(C)c1ccc(S(=O)(=O)n2ccc(C(=O)NCCc3ccc(F)cc3)c2)cc1 [Compound 89, 1-((4-(tert-butyl)phenyl)sulfonyl)-N-(4-fluorophenethyl)-1H-pyrrole-3-carboxamide] | 15.6 µM | 6.7 µM | 2.8 µM |
| O=C(Nc1ccc(Cl)c(F)c1)c1ccn(S(=O)(=O)c2ccc3[nH]ccc3c2)c1 [Compound 69, 1-((1H-indol-5-yl)sulfonyl)-N-(4-chloro-3-fluorophenyl)-1H-pyrrole-3-carboxamide] | 17.3 µM | 13.3 µM | 8.66 µM |
| O=C(Nc1ccc(C(F)(F)F)cc1)c1ccn(S(=O)(=O)c2ccc3[nH]ccc3c2)n1 [Compound 78, 1-((1H-indol-5-yl)sulfonyl)-N-(4-(trifluoromethyl)phenyl)-1H-pyrazole-3-carboxamide] | 21.6 µM | 18.4 µM | 5.44 µM |
| Cc1cccc(NC(=O)c2ccn(S(=O)(=O)c3ccc4[nH]ccc4c3)c2)c1 [Compound 44, 1-((1H-indol-5-yl)sulfonyl)-N-(m-tolyl)-1H-pyrrole-3-carboxamide] | 15.2 µM | 8.7 µM | 2.5 µM |
| CCC(C)c1ccc(NC(=O)C2CCN(S(=O)(=O)c3ccc4cc[nH]c4c3)CC2)cc1 (stereo not drawn) [Compound 64, 1-((1H-indol-6-yl)sulfonyl)-N-(4-(sec-butyl)phenyl) piperidine-4-carboxamide] | 4.05 µM | 14 µM | 9.8 µM |
| Cc1ccc(NC(=O)C2CCN(S(=O)(=O)c3ccc4[nH]ccc4c3)CC2)cc1O [Compound 7, 1-((1H-indol-5-yl)sulfonyl)-N-(3-hydroxy-4-methylphenyl)piperidine-4-carboxamide] | 32.6 µM | 44.4 µM | 41.4 µM |

| SMILES | IC50 [1] | IC50 (A549 (NSCLC) cells) | IC50 (A2780 (ovarian) cells) |
| --- | --- | --- | --- |
| O=C(Nc1ccc(C(F)(F)F)cc1)N1CCN(S(=O)(=O)c2ccc3c(c2)CCN3)CC1 [Compound 14, 4-(indolin-5-ylsulfonyl)-N-(4-(trifluoromethyl)phenyl)piperazine-1-carboxamide] | 26.6 µM | 33.1 µM | 24.8 µM |
| CCC(C)c1ccc(NC(=O)c2ccn(S(=O)(=O)c3ccc4c(c3)CCN4)c2)cc1 (stereo not drawn) [Compound 21, N-(4-(sec-butyl)phenyl)-1-(indolin-5-ylsulfonyl)-1H-pyrrole-3-carboxamide] | 27.1 µM | 37.4 µM | 20 µM |
| O=C(Nc1ccc(F)c(F)c1)c1ccn(S(=O)(=O)c2ccc3[nH]ccc3c2)c1 [Compound 68, 1-((1H-indol-5-yl)sulfonyl)-N-(3,4-difluorophenyl)-1H-pyrrole-3-carboxamide] | 19.1 µM | 16.6 µM | 8.53 µM |
| CC(C)c1ccc(NC(=O)c2ccn(S(=O)(=O)c3ccc4[nH]ccc4c3)c2)cc1 [Compound 37, 1-((1H-indol-5-yl)sulfonyl)-N-(4-isopropylphenyl)-1H-pyrrole-3-carboxamide] | 10.8 µM | 5.8 µM | 4.3 µM |
| CCC(C)c1ccc(NC(=O)N2CCN(S(=O)(=O)c3ccc4[nH]ccc4c3)CC2)cc1 (stereo not drawn) [Compound 15, 4-((1H-indol-5-yl)sulfonyl)-N-(4-(sec-butyl)phenyl)piperazine-1-carboxamide] | 14.9 µM | 25.8 µM | 22.3 µM |
| O=C(Nc1ccc(C(F)(F)F)cc1)C1CCN(S(=O)(=O)c2ccc3c(c2)CCN3)CC1 [Compound 5, 1-(indolin-5-ylsulfonyl)-N-(4-(trifluoromethyl)phenyl)piperidine-4-carboxamide] | 27.4 µM | 39.6 µM | 14.8 µM |
| CCC(C)c1ccc(NC(=O)C2CCN(S(=O)(=O)c3ccc4c(c3)CCN4)CC2)cc1 (stereo not drawn) [Compound 3, N-(4-(sec-butyl)phenyl)-1-(indolin-5-ylsulfonyl) piperidine-4-carboxamide] | 19.3 µM | 19.9 µM | > 100 µM |
| CC(C)c1ccc(NC(=O)c2ccn(S(=O)(=O)c3ccc4[nH]ccc4c3)n2)cc1 [Compound 107, 1-((1H-indol-5-yl)sulfonyl)-N-(4-isopropylphenyl)-1H-pyrazole-3-carboxamide] | 6.22 µM | 6.58 µM | 8.11 µM |
| CCC(C)c1ccc(NC(=O)c2ccn(S(=O)(=O)c3cnc4[nH]ccc4c3)c2)cc1 (stereo not drawn) [Compound 60, 1-((1H-pyrrolo[2,3-b]pyridin-5-yl)sulfonyl)-N-(4-(sec-butyl)phenyl)-1H-pyrrole-3-carboxamide] | 13.2 µM | 3.9 µM | 3.8 µM |
| CC(C)c1cccc(NC(=O)c2ccn(S(=O)(=O)c3ccc4[nH]ccc4c3)c2)c1 [Compound 38, 1-((1H-indol-5-yl)sulfonyl)-N-(3-isopropylphenyl)-1H-pyrrole-3-carboxamide] | 12 µM | 5.4 µM | 6.7 µM |
| Cn1cc(S(=O)(=O)N2CCN(C(=O)Nc3ccc(C(F)(F)F)cc3)CC2)cc1C(N)=O [Compound 11, 4-((5-carbamoyl-1-methyl-1H-pyrrol-3-yl)sulfonyl)-N-(4-(trifluoromethyl)phenyl)piperazine-1-carboxamide] | > 100 µM | > 100 µM | 48.4 µM |
| CC(C)(C)c1ccc(NC(=O)c2ccn(S(=O)(=O)c3ccc4[nH]ccc4c3)n2)cc1 [Compound 113, 1-((1H-indol-5-yl)sulfonyl)-N-(4-(tert-butyl)phenyl)-1H-pyrazole-3-carboxamide] | 9.41 µM | 7.22 µM | 8.37 µM |
| CCC(C)c1ccc(NC(=O)c2ccn(S(=O)(=O)c3ccc4[nH]c(C)cc4c3)c2)cc1 (stereo not drawn) [Compound 57, N-(4-(sec-butyl)phenyl)-1-((2-methyl-1H-indol-5-yl)sulfonyl)-1H-pyrrole-3-carboxamide] | 7.22 µM | 3.9 µM | 3.9 µM |
| Cc1ccc(NC(=O)c2ccn(S(=O)(=O)c3ccc4c(c3)CCN4)c2)cc1O [Compound 22, N-(3-hydroxy-4-methylphenyl)-1-(indolin-5-ylsulfonyl)-1H-pyrrole-3-carboxamide] | 57.6 µM | > 100 µM | > 100 µM |
| Cc1ccccc1NC(=O)c1ccn(S(=O)(=O)c2ccc3[nH]ccc3c2)c1 [Compound 45, 1-((1H-indol-5-yl)sulfonyl)-N-(o-tolyl)-1H-pyrrole-3-carboxamide] | 27 µM | 5.2 µM | 2.2 µM |
